ChEMBL document CHEMBL3397010, “Design, synthesis, and biological evaluation of air-stable nafuredin-γ analogs as complex I inhibitors” (Bioorg Med Chem, 2015)

Experiment: Inhibition of electron transport protein complex 1 in Ascaris suum mitochondria assessed as reduction in rhodoquinol-fumarate reductase activity by measuring NADH oxidation using NADH, sodium fumarate and decyl-rhodoquinone

Row | Structure (SMILES) | IC50 [nM]
1 | CC[C@H](C)CC/C=C(\C)C[C@@H](C)CC/C=C/[C@@H](O)[C@]1(C)CCC(=O)O1 | 550
2 | CC(C)=CCC/C(C)=C/CC/C(C)=C/CC[C@@H](O)[C@]1(C)CCCO1 | 500
3 | C/C(=C\CCC(C)C)C[C@@H](C)CC/C=C/[C@@H](O)[C@]1(C)CCC(=O)O1 | 300
4 | CC[C@H](C)/C=C/C=C(\C)C[C@@H](C)/C=C/C=C/[C@@H](O)[C@]1(C)C=C(O)C(=O)O1 | 6
5 | C/C(=C\CCC(C)C)CCCC/C=C/[C@@H](O)[C@]1(C)CCC(=O)O1 | 340
6 | CCc1ccc2ccc(Cc3cccc(/C=C/[C@@H](O)[C@]4(C)CCC(=O)O4)c3)cc2c1 | 550
7 | CC(C)=CCC/C(C)=C/CC/C(C)=C/CC[C@@H](O)[C@]1(C)CCC(=O)O1 | 820
